In patent US4190674A, “3-Fluoro-N-cyclopropylcinnamide” (Burroughs Wellcome Co., priority 1977, dated 1980):

Experiments:
Format in all cases: in vivo
rat = assay: Maximal Electroschock Test (MES), rat; details: ip
Source text: (§1) 1. Maximal Electroschock Test (MES) in mice, a method described by Woodbury and Davenport, Arch int. Pharmacodyn. Ther. 92, P. 97-107 (1952).
(§2) In the MES pharmacological test referred to hereinbefore, the stated compounds had the given ED50 when administered i.p. to mice or rats as appropriate.

muscle tone = assay: Muscle tone in mammals (general statement); details: in words
mice = assay: Maximal Electroschock Test (MES) in mice; details: Mus musculus, ip
Source text: as §1, §2

[1] = system: polysynaptic reflex contractions; assay: Muscle Relaxant Activity: polysynaptic reflex contractions in the cat; details: oral dose of from 100-150 mg/kg
Protocol: (§3) The effect of trans 3-fluoro-N-cyclopropylcinnamamide as a centrally acting muscle relaxant was determined using a method based on that described in Berger, F. M. & Bradley, W. (Br. J. Pharmac. Chemother, (1946), 1, 265-272) and Crankshaw, D. P. & Raper, C. (Br. J. Pharmac. (1970), 38, 148-156).

[2] = system: monosynaptic kneed-jerk reflex; assay: Muscle Relaxant Activity: monosynaptic knee-jerk reflex in the cat; details: oral dose of from 100-150 mg/kg
Protocol: as §3

**Q.** For `O=C(/C=C/c1cccc(C(F)(F)F)c1)NC1CC1` [Trans 3-Trifluoromethyl-N-Cyclopropylcinnamamide], which ED50 (rat) is on record?
**A.** 56 mg/kg

**Q.** `O=C(/C=C/c1cccc(F)c1)NC1CC1` [formula (IA), 3-fluoro-N-cyclopropylcinnamamide] was tested. Which muscle tone (muscle tone) did it give?
**A.** decreases muscle tone in mammals

**Q.** Which ED50 (mice) does the source give for `O=C(/C=C/c1cccc(Br)c1)NC1CC1` [trans 3-bromo-N-cyclopropylcinnamamide, Trans 3-Bromo-N-cyclopropylcinnamamide] here?
**A.** 77 mg/kg

**Q.** With `O=C(/C=C/c1cccc(F)c1)NC1CC1` [trans 3-fluoro-N-cyclopropylcinnamamide, Trans 3-Fluoro-N-cyclopropylcinnamamide] as the compound, how does the ED50 (mice) read?
**A.** 60 mg/kg

**Q.** What about the polysynaptic reflex contractions [1] of the same compound?
**A.** suppressed polysynaptic reflex contractions

**Q.** What about the monosynaptic kneed-jerk reflex [2] of the same compound?
**A.** without affecting the monosynaptic kneed-jerk reflex
